Experimental data taken from patent US8088828B2, “Treating benign prostate hyperplasia with SARMS” (priority 2002, dated 2012).

Experiments:
[1] = target: T1, human 5α-reductase type 1 (Homo sapiens, UniProt P18405); format: cell-based
T1 construct: expressed in transfected cells; host or cells: COS1 cells; expression vectors obtained from Dr. David W. Russell
T1 sequence (P18405 1-259): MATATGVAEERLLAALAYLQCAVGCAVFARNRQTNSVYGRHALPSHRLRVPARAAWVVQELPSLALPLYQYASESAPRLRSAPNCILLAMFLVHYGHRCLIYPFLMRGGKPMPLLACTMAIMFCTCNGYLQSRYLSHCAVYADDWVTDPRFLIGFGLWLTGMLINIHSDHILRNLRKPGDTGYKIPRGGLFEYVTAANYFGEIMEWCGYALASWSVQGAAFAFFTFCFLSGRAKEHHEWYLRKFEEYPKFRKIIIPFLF
Experimental: (§1) Methods: COS1 (American Type Culture Collection, Manassas, Va.) cells were plated in twelve-well plates at a density of 60,000 cells/well and transiently transfected with expression vectors for human 5•-reductase (obtained from Dr. David W. Russell, Southwestern Medical Center, Dallas, Tex.). LipofectAMINE PLUS™ Reagent (Invitrogen, Carlsbad, Calif.) was used for transfection. pCMV•SPORT-•gal plasmid (Invitrogen, Carlsbad, Calif.) was co-transfected to monitor transfection efficiency. Forty-eight hours after transfection, testosterone (4 μM) and/or Compound VI (2 or 200 μM) were added to the medium and incubated at 37° C. Aliquots of the culture medium were removed after 2 hours and the reaction stopped by addition of ice-cold acetonitrile (1:1, vol:vol). Testosterone and Compound VI concentrations in the incubate were determined by HPLC using a reversed-phase column (μBondaPak C18, 3.9×300 mm, Waters Corporation, Milford, Mass.) and a mobile phase of 38% acetonitrile in deionized water at a flow rate of 1.5 ml/min. Analytes were detected by UV absorbance at 254 nm. Calibration curves were prepared using the peak areas to calculate the concentration of testosterone or Compound VI in the incubate at the completion of the reaction. Cells were lysed after the reaction and the cellular supernatant used to determine •-galactosidase activity and ensure equal transfection efficiency between wells.

[2] = target: T2, human 5α-reductase type 2 (Homo sapiens, UniProt P31213); format: cell-based
T2 construct: expressed in transfected cells; host or cells: COS1 cells; expression vectors obtained from Dr. David W. Russell
T2 sequence (P31213 1-254): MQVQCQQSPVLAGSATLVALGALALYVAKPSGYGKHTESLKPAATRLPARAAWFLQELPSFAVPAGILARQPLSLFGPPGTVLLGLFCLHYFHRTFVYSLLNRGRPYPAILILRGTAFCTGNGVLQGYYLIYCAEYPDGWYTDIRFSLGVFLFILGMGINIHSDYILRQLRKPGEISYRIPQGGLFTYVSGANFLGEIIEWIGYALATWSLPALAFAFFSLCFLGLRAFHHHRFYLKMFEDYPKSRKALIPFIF
Experimental: as §1

[3] = tested on: male Sprague-Dawley rats (intact, hemi-orchidectomized, castrated); assay: Plasma testosterone, FSH, LH and osteocalcin in rats of varying hormonal status; format: in vivo, rat; details: for Plasma FSH levels / Plasma LH levels / Plasma osteocalcin levels / Plasma testosterone levels: 0.5 mg/day osmotic pump, 14 days
From the text: (§2) Methods: Compound VI was synthesized and characterized in the laboratory of Dr. Duane Miller at the University of Tennessee, Memphis, Tenn. Male Sprague-Dawley rats were purchased from Harlan Biosciences (Indianapolis, Ind.). The animals were maintained on a 12-h cycle of light and dark with food and water available ad libitum. All animal studies were reviewed and approved by the Animal Care and Use Committee of The Ohio State University, and conformed to the Principles of Laboratory Animal Care. Immature male Sprague-Dawley rats weighing […] were randomly distributed into 9 groups of 5 animals. One day before the initiation of drug treatment, groups 4 through 6 and groups 7 through 9 received unilateral or bilateral orchidectomy, respectively, via a midline scrotal incision. […] All drugs given to animals were freshly prepared as solutions in polyethylene glycol 300 (PEG 300). Groups 4 and 7 received treatment with vehicle alone (i.e., PEG 300). Animals in groups 3, 6, and 9 received testosterone propionate (TP, 0.5 mg/day) via implantation of subdermal osmotic pumps (Model 2002, Durect Corporation, Palo Alto, Calif.). Animals in groups 2, 5, and 8 received Compound VI (0.5 mg/day) via implantation of subdermal osmotic pumps. After 14 days of drug treatment, rats were weighed, anesthetized, and sacrificed. Blood samples were collected by venipuncture of the abdominal aorta. Plasma samples were analyzed for testosterone, FSH, LH and osteocalcin. Testosterone concentrations were measured by AniLytics Inc. (Gaithersburg, Md.). FSH and LH levels were measured by the National Hormone and Peptide Program (Dr. A F Parlow, UCLA, CA). Plasma osteocalcin levels were determined using a commercially available rat osteocalcin EIA kit from Biomedical Technologies Inc. (Stoughton, Mass.). The ventral prostates, seminal vesicles, and levator ani muscle were removed and weighed. Osmotic pumps were also removed from animals to check for correct pump operation. The weights of all organs were normalized to body weight, and analyzed for any statistically significant differences between groups using single-factor ANOVA with the alpha value set a priori at p<0.05. The weights of prostates and seminal vesicles were used as indices for evaluation of androgenic activity, and the levator ani muscle weight was used to evaluate the anabolic activity. Statistical analyses of parameters from complete blood count or serum chemical profiling, wherever applicable, were performed by single-factor ANOVA with the alpha value set a priori at p<0.05.

[4] = tested on: male Sprague-Dawley rats (intact, hemi-orchidectomized, castrated); assay: Prostate, seminal vesicle and levator ani muscle weights in rats of varying hormonal status; format: in vivo, rat; details: 0.5 mg/day, 14 days
From the text: as §2

intact male rats = assay: Compound VII 0.5 mg/day in intact male rats, organ weights; format: in vivo, rat
[5] = tested on: intact male Sprague-Dawley rats; assay: Organ weights in intact male rats after 3, 6 or 9 days of daily subcutaneous injections; format: in vivo, rat
Experimental: Methods: Male Sprague-Dawley rats were purchased from Harlan Biosciences (Indianapolis, Ind.). The animals were maintained on a 12-h cycle of light and dark with food and water available ad libitum. Male Sprague-Dawley rats weighing 189 to 226 g were randomly distributed into groups of 5 animals. The intact male rats were treated with hydroxy-flutamide (0.5, 1, 5, 10 or 25 mg/kg), finasteride (5 mg/kg), Compound VII (0.5, 1, 5, 10, 25 mg/kg) or vehicle for 3, 6, or 9 days. The drugs were dissolved in DMSO:PEG300 (20:80, v:v) and administered via daily subcutaneous injections, and the dosages were adjusted based on animal's body weight, which was measured on a daily basis. A group of castrated rats (n=5) was also included as control for each time point. […] The organ weights were normalized with the body weights. Percentage changes were determined by comparison to intact animals. Statistical analyses of all the parameters were performed by single-factor ANOVA with the alpha value set a priori at p<0.05.

[6] = tested on: intact male Sprague-Dawley rats; assay: Prostate weight in intact Sprague-Dawley rats after 7 days of oral gavage; format: in vivo, rat
[7] = Compound VI 2 μM, 2-hour incubation
[8] = testosterone 4 μM, Compound VI 2 μM or 200 μM, 2 hours
[9] = 3 days, in general over 0.5, 1, 5, 10, 25 mg/kg s.c.
[10] = 9 days, high doses (5, 10, 25 mg/kg) s.c.

CC(=O)Nc1ccc(OC[C@](C)(O)C(=O)Nc2ccc([N+](=O)[O-])c(C(F)(F)F)c2)cc1 [Compound VI]
type of inhibition of 5α-reductase type 1 [1]: competitive inhibitor
metabolism of Compound VI by 5α-reductase type 1 [1, 7]: not metabolized
decrease in testosterone concentration in the presence of Compound VI [1, 8]: less than 10%
type of inhibition of 5α-reductase type 2 [2]: competitive inhibitor
metabolism of Compound VI by 5α-reductase type 2 [2, 7]: not metabolized
decrease in testosterone concentration in the presence of Compound VI [2, 8]: less than 10%
effect on plasma FSH and LH levels ([3]; all surgical groups, 0.5 mg/day): no effect
Plasma FSH levels ([3]; castrated rats): 69.6 ± 11.7 ‡ ng/ml
Plasma LH levels ([3]; castrated rats): 8.644 ± 2.799 ‡ ng/ml
Plasma osteocalcin levels ([3]; castrated rats): 94.215 ± 12.568 ng/mL
Plasma testosterone levels ([3]; castrated rats): 0.066 ± 0.148 ‡ ng/ml
effect on plasma osteocalcin levels ([3]; hemi-orchidectomized and castrated animals, 0.5 mg/day): significant increase
Plasma FSH levels ([3]; hemi-orchidectomized rats): 15.2 ± 2.2 ng/mL
Plasma LH levels ([3]; hemi-orchidectomized rats): 0.124 ± 0.115 ng/mL
Plasma osteocalcin levels ([3]; hemi-orchidectomized rats): 89.804 ± 15.517 ng/mL
Plasma testosterone levels ([3]; hemi-orchidectomized rats): 1.404 ± 0.810 ng/mL
Plasma FSH levels ([3]; intact rats): 14.4 ± 1.7 ng/mL
Plasma LH levels ([3]; intact rats): 0.026 ± 0.037 ng/mL
Plasma osteocalcin levels ([3]; intact rats): 55.584 ± 9.715 ng/mL
Plasma testosterone levels ([3]; intact rats): 1.830 ± 0.510 ng/mL
effect on plasma testosterone levels ([3]; intact, hemi-orchidectomized or castrated male rats, 0.5 mg/day): did not affect
Levator ani muscle weight normalized to body weight ([4]; castrated rats): 100.65 ± 10.86 % of intact control
Prostate weight normalized to body weight ([4]; castrated rats): 32.55 ± 11.65 % of intact control
Seminal vesicle weight normalized to body weight ([4]; castrated rats): 16.47 ± 5.21 % of intact control
Levator ani muscle weight normalized to body weight ([4]; hemi-orchidectomized rats): 108.10 ± 8.92 % of intact control
Prostate weight normalized to body weight ([4]; hemi-orchidectomized rats): 74.69 ± 8.44 % of intact control
Seminal vesicle weight normalized to body weight ([4]; hemi-orchidectomized rats): 78.55 ± 13.58 % of intact control
size of the levator ani muscle ([4]; hemi-orchidectomized rats): 108 % of that observed in untreated hemi-orchidectomized animals
size of the prostate ([4]; hemi-orchidectomized rats): 75 % of that observed in untreated hemi-orchidectomized animals
size of the seminal vesicles ([4]; hemi-orchidectomized rats): 79 % of that observed in untreated hemi-orchidectomized animals
Levator ani muscle weight normalized to body weight ([4]; intact rats): 109.15 ± 14.68 % of intact control
Prostate weight normalized to body weight ([4]; intact rats): 79 % of intact control
Seminal vesicle weight normalized to body weight ([4]; intact rats): 90.54 ± 12.10 % of intact control
changes in the size of the seminal vesicles or levator ani muscle ([4]; intact rats): no statistically significant changes
Prostate weight normalized to body weight ([4]; intact rats, listed as COMPOUND VI): 79.41 ± 9.32 % of intact control
adverse pharmacologic effects ([4]; rats): No adverse pharmacologic effects were observed

C[C@](O)(COc1ccc(F)cc1)C(=O)Nc1ccc([N+](=O)[O-])c(C(F)(F)F)c1 [Compound VII]
effect on levator ani muscle weight (intact male rats): without affecting
prostate weight (intact male rats): 63 % of that observed in vehicle-treated intact animals
effect on levator ani muscle weight ([5]; 3 days, 0.5, 1, 5, 10, 25 mg/kg s.c.): without affecting
prostate weight (compared to intact animals) [5, 9]: 80%
seminal vesicle weight (compared to intact animals) [5, 9]: 70%
changes in levator ani muscle weights ([5]; 6 days, 5, 10, 25 mg/kg s.c.): none of these doses caused any significant changes
increase of levator ani muscle weight ([5]; 9 days, 25 mg/kg s.c.): 12%
prostate weight (compared to intact animals) [5, 10]: 50%
seminal vesicle weight (compared to intact animals) [5, 10]: 45%
levator ani muscle weight (compared to intact animals) ([5]; 9 days, highest dose group (25 mg/kg) s.c.): 112%
changes in levator ani muscle weights ([5]; 9 days, most of the dose groups s.c.): no significant changes
atrophy in prostate on increasing the dose 100-fold ([6]; 10 mg/kg compared to 1000 mg/kg as printed): did not significantly increase
reduction of prostate weight (normalized to body weight) compared to the intact control ([6]; all treatment groups, oral gavage once daily for 7 days, p<0.01): greater than 48.4%
